The record followed here is patent US10077261B2, “Imidazolin-5-one derivative useful as FASN inhibitors for the treatment of cancer” (Janssen Pharmaceutica NV, priority 2012, dated 2018).

Test [1] has as its system A2780 ovarian cells. Put plainly: A2780 ovarian cell proliferation assay in lipid reduced medium, without palmitate (MTT). It is filed as cell-based. Conditions: Homo sapiens, A2780, 96 h; read-out: pIC50 A2780 Ovarian Cell, Without Palmitate (converted).
In test [2] the target is T1, hFASN enzyme (full length) (Homo sapiens, UniProt P49327).
T1 construct: 10 μL hFASN enzyme (full length, 300 ng, purified in house); made in house
Put plainly: Fatty Acid Synthase (FASN) inhibition scintillation proximity assay. Conditions: for inhibition at 10 µM: read-out: Human FASN % inhibition @ 10 μM, 10 μM test compound. In kind it is biochemical. In outline: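 Read-out relies on hydrophobic ³H-palmitate product, formed from ³H-acetyl-CoA and malonyl-CoA, binding streptavidin imaging beads, measured at 610±20 nm after at least 24 h. Full-length enzyme (300 ng) in phosphate buffer pH 7.5 with DTT; eight compound concentrations, 0.01–30 μM.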
On the technique in general: SPA uses beads or plates that emit light when radiolabelled molecules are held near them.

Test [3] relates to PC-3M-Luc-C6 prostate cells. In words: In vitro PC-3M-Luc-C6 prostate cell proliferation assay in lipid reduced medium. It is filed as cell-based. Conditions: 96 h, read-out: pIC50 PC-3M-Luc-C6 prostate cell (converted). As for the experimental part:
PC-3M-Luc-C6 prostate cells were obtained from Xenogen Corporation. Cells were maintained in MEM supplemented with 10% Fetal Calf Serum (FCS, Hyclone), 2 mM glutamine, 1 mM sodium pyruvate, 1% BME vitamins (available from for example, Sigma Aldrich), 0.1 mM non Essential Amino Acid and 50 μg/ml Gentamicin. The cells were passaged twice a week.
The next day 10 μl test compound/DMSO diluted in medium was added (3E-5M, 1E-5M, 3E-6M, 1E-6M, 3E-7M, 1E-7M, 3E-8M, 1E-8M final concentration). Compounds were tested in duplicate. After 96 h incubation at 37° C., 5% CO2 25 μl ATP-glow mix was added. The plate was incubated for 30 min at 37° C. and luminescence was measured with the Envision.
Analysis: Determination of pIC50 Values
pIC50 values were calculated as follows.
where mLC and mHC are the means of the low control wells and high control wells on the plate, after manual exclusion of outliers. The relation between the % Controlmin values and concentration was fitted to a 4-parameter logistic curve using a non-linear least squares regression method to determine the pIC50 value. Outlying data points were excluded manually to get a correct fit. The pIC50 corresponds to −log 10(IC50), if the IC50 is expressed in molar units (http://www.ncbi.nlm.nih.gov/books/NBK91994). The IC50 parameter was always determined by non-linear regression, but one or more of the other parameters may have been held fixed on a relevant input value, such as 0 for the bottom values.

Test [4] has as its system A2780 ovarian cells. Put plainly: A2780 ovarian cell proliferation assay in lipid reduced medium, with palmitate (MTT). It is filed as cell-based. To be noted: Homo sapiens, A2780, 96 h; read-out: pIC50 A2780 Ovarian Cell, With Palmitate (converted). In short, it runs like this:
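In this palmitate-supplemented format, compound dilutions (30 μM down to 0.01 μM) are added to cells in lipid-reduced serum with 25 μM palmitate, 0.2% fatty-acid-free BSA and 0.25% ethanol. After four days (96 h) MTT absorbance at 544 nm is recorded and fitted by minimum sum of squares.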

Test [5] has as its system LNCaP-Vancouver prostate cells. In words: In vitro LNCaP Vancouver prostate cell proliferation assay in lipid reduced medium. Conditions: read-out: pIC50 LNCaP_Vancouver prostate cell (converted). In kind it is cell-based.

T1 sequence (P49327 whole entry): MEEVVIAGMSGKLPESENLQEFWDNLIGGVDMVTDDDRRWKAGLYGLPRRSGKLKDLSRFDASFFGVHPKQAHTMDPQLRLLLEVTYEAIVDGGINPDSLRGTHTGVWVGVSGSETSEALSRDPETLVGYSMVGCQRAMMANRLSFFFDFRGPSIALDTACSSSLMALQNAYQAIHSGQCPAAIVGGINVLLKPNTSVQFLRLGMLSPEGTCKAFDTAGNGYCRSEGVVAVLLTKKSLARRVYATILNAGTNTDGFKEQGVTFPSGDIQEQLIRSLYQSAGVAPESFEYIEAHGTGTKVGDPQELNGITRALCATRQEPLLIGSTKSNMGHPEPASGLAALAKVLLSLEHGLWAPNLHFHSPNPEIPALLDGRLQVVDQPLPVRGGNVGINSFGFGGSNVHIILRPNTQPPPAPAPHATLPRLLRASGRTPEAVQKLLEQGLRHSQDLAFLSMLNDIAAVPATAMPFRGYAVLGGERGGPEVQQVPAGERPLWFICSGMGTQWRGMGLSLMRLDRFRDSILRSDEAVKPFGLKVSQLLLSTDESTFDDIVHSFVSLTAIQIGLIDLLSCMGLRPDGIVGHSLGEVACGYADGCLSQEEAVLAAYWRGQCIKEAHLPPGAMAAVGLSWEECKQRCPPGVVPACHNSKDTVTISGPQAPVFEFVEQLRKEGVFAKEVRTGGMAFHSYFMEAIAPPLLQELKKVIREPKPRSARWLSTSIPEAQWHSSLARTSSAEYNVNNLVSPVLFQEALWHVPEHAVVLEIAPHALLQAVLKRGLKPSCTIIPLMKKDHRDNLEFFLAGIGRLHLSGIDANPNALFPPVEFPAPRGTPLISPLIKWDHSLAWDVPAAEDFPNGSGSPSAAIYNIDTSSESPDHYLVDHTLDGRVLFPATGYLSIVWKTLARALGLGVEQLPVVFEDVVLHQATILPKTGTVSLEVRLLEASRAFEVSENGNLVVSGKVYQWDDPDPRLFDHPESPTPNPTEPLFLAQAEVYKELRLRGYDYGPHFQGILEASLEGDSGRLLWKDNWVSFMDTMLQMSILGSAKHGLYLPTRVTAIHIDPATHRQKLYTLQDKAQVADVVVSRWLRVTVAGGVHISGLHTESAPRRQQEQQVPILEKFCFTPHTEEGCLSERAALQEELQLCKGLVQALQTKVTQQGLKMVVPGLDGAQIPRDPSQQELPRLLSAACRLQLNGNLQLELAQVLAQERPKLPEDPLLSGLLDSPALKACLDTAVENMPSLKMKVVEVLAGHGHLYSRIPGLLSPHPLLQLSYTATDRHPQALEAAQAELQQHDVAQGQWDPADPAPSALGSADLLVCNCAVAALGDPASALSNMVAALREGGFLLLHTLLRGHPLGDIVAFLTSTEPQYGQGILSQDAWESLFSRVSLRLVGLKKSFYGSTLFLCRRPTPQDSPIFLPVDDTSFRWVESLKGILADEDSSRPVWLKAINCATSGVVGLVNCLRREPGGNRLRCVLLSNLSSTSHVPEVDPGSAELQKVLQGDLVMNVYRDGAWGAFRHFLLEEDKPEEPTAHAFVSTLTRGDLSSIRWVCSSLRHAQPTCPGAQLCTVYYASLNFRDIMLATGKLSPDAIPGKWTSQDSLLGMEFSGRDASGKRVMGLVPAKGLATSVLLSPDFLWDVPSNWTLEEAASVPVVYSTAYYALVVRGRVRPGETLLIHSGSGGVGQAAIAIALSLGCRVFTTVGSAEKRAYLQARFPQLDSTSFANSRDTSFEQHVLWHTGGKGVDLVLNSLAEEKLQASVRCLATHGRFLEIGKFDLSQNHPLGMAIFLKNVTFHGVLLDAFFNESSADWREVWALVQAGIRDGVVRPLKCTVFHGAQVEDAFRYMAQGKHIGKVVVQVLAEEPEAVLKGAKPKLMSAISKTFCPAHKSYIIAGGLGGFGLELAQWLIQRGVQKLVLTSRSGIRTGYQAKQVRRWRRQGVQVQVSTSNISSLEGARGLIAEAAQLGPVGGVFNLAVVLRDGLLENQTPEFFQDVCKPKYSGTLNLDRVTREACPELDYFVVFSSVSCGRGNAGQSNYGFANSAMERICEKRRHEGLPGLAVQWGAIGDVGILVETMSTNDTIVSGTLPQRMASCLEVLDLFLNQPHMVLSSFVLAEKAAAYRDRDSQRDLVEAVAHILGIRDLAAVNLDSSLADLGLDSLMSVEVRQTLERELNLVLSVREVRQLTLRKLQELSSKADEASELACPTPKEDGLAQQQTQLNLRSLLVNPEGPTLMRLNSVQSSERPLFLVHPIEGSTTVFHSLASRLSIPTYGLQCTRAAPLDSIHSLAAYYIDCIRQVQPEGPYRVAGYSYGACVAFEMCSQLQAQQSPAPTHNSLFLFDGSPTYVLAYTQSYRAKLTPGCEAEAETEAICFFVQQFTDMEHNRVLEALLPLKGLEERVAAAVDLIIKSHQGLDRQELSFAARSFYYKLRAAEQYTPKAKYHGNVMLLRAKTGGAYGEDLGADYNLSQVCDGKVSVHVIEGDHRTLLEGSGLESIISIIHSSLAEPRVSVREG

As to `Cn1ncc2cc(-c3ccc(C4=NC5(CC5)C(=O)N4C[C@@H]4CCN(C(=O)C5CCO5)C4)cc3)ccc21` (stereo partly drawn) [compound 204, 5-(4-(1-methyl-1H-indazol-5-yl)phenyl)-6-(((3R)-1-(oxetane-2-carbonyl)pyrrolidin-3-yl)methyl)-4,6-diazaspiro[2.4]hept-4-en-7-one], the IC50 was approximately 0.0407 µM in the test with A2780 ovarian cells [1], 0.0513 µM in test [3], more than 10 µM with A2780 ovarian cells [4] and 0.407 µM in test [5]. Further, the inhibition (commonly the relative decrease from the control value, in per cent) at 10 µM in test [2] came out at 103%.

In the case of `Cc1cc(-c2ccc3c(cnn3C)c2)ccc1C1=NC2(CC2)C(=O)N1CC1CN(C(=O)C2(C)CC2)C1` [compound 207, 5-(2-methyl-4-(1-methyl-1H-indazol-5-yl)phenyl)-6-((1-(1-methylcyclopropanecarbonyl)azetidin-3-yl)methyl)-4,6-diazaspiro[2.4]hept-4-en-7-one], the IC50 was 0.0603 µM with A2780 ovarian cells [1], approximately 0.0676 µM in test [3], more than 10 µM with A2780 ovarian cells [4] and 0.513 µM in test [5]. In addition, the inhibition at 10 µM in test [2] turned out to be 101%.

Consider `Cc1cc(-c2ccc3cc(F)ccc3c2)ccc1C1=NC2(CC2)C(=O)N1CC1CN(C(=O)C2CCO2)C1` (centres unmarked) [compound 223, 5-(4-(6-fluoronaphthalen-2-yl)-2-methylphenyl)-6-((1-(oxetan-2-carbonyl)azetidin-3-yl)methyl)-4,6-diazaspiro[2.4]hept-4-en-7-one], for which the IC50 is approximately 0.02 µM with A2780 ovarian cells [1]; 0.0537 µM in test [2] (read-out: Human FASN pIC50 (converted)); 0.0603 µM in test [3]; 3.31 µM with A2780 ovarian cells [4]; 0.24 µM in test [5]. The inhibition at 10 µM in test [2] turned out to be 104%.

As to `O=C(C1CC1)N1CC(CN2C(=O)C3(CC3)N=C2c2ccc(-c3ccc4cc(F)ccc4n3)cc2F)C1` [compound 228, 6-((1-(cyclopropanecarbonyl)azetidin-3-yl)methyl)-5-(2-fluoro-4-(6-fluoroquinolin-2-yl)phenyl)-4,6-diazaspiro[2.4]hept-4-en-7-one], the IC50 is 0.0182 µM with A2780 ovarian cells [1], 0.0977 µM in test [3], more than 10 µM with A2780 ovarian cells [4] and 0.759 µM in test [5]. In test [2], the inhibition at 10 µM came out at 103%.

In the case of `Cc1cc(C2=NC3(CC3)C(=O)N2C[C@@H]2CCN(C(=O)C3CC3)C2)ccc1-c1ccc2cc[nH]c2c1` [compound 239, (R)-5-(4-(1H-indol-6-yl)-3-methylphenyl)-6-((1-(cyclopropanecarbonyl)pyrrolidin-3-yl)methyl)-4,6-diazaspiro[2.4]hept-4-en-7-one], the IC50 in the test on A2780 ovarian cells [1] is 0.0603 µM; in test [3], 0.135 µM; in the test with A2780 ovarian cells [4], more than 10 µM; in test [5] it was 0.813 µM. Besides, the inhibition at 10 µM in test [2] was 96%.

In the case of `Cc1cc2cc(-c3ccc(C4=NC5(CC5)C(=O)N4C[C@@H]4CCN(C(=O)C5CC5)C4)cc3)ccc2o1` [compound 294, (R)-6-((1-(cyclopropanecarbonyl)pyrrolidin-3-yl)methyl)-5-(4-(2-methylbenzofuran-5-yl)phenyl)-4,6-diazaspiro[2.4]hept-4-en-7-one], the IC50 was approximately 1.86 µM in the test with A2780 ovarian cells [1], approximately 0.871 µM in test [3], more than 10 µM with A2780 ovarian cells [4] and 2.04 µM in test [5]. In addition, the inhibition at 10 µM in test [2] was determined as 100%.

Consider `O=C(C1CC1)N1CC[C@@H](CN2C(=O)C3(CC3)N=C2c2ccc(-c3ccc4[nH]ncc4c3)cc2)C1` [compound 297, (R)-5-(4-(1H-indazol-5-yl)phenyl)-6-((1-(cyclopropanecarbonyl)pyrrolidin-3-yl)methyl)-4,6-diazaspiro[2.4]hept-4-en-7-one], for which the IC50 with A2780 ovarian cells [1] was 0.0251 µM; in test [3] it was approximately 0.0302 µM; in the test on A2780 ovarian cells [4] it was more than 10 µM; in test [5], 0.646 µM.

For `O=C(C1CC1)N1CC[C@@H](CN2C(=O)C3(CC3)N=C2c2ccc(-c3cccc4[nH]ncc34)cc2)C1` [compound 302], the IC50 is 0.0132 µM in the test on A2780 ovarian cells [1], 0.0166 µM in test [3], more than 10 µM with A2780 ovarian cells [4] and 0.437 µM in test [5].

Consider `O=C(C1CC1)N1CC[C@@H](CN2C(=O)C3(CC3)N=C2c2ccc(-c3ccc4cccnc4c3)cc2)C1` [compound 309, (R)-6-((1-(cyclopropanecarbonyl)pyrrolidin-3-yl)methyl)-5-(4-(quinolin-7-yl)phenyl)-4,6-diazaspiro[2.4]hept-4-en-7-one], for which the IC50 in the test with A2780 ovarian cells [1] was 0.00617 µM; in test [3] it was 0.00741 µM; in the test with A2780 ovarian cells [4] it was more than 10 µM; in test [5] it was 0.0316 µM.

Consider `O=C(C1CC1)N1CC[C@H](CN2C(=O)C3(CC3)N=C2c2ccc(-c3ccc4occc4c3)cc2)C1` [compound 409, 5-[4-(1-Benzofuran-5-yl)phenyl]-6-{[(3S)-1-(cyclopropylcarbonyl)pyrrolidin-3-yl]methyl}-4,6-diazaspiro[2.4]hept-4-en-7-one], for which the IC50 with A2780 ovarian cells [1] is 2.09 µM; in test [3], 1.17 µM; with A2780 ovarian cells [4], more than 10 µM; in test [5], 2.19 µM.

In the case of `Cn1ncc2cc(-c3ccc(C4=NC5(CC5)C(=O)N4C[C@H]4CCN(C(=O)C5CC5)C4)cc3)ccc21` [compound 410, 6-{[(3S)-1-(Cyclopropylcarbonyl)pyrrolidin-3-yl]methyl}-5-[4-(1-methyl-1H-indazol-5-yl)phenyl]-4,6-diazaspiro[2.4]hept-4-en-7-one], the IC50 in the test with A2780 ovarian cells [1] is 0.537 µM; in test [3] it was 0.447 µM; in the test on A2780 ovarian cells [4] it was more than 10 µM; in test [5] it was 0.977 µM.

Regarding `Cc1cc(C2=NC3(CC3)C(=O)N2C[C@@H]2CCN(C(=O)C3CC3)C2)ccc1-c1ccc2c(cnn2C)c1` [compound 450, 6-{[(3R)-1-(Cyclopropylcarbonyl)pyrrolidin-3-yl]methyl}-5-[3-methyl-4-(1-methyl-1H-indazol-5-yl)phenyl]-4,6-diazaspiro[2.4]hept-4-en-7-one], the IC50 in the test on A2780 ovarian cells [1] is approximately 0.617 µM; in test [3] it was 0.794 µM; in the test with A2780 ovarian cells [4], more than 10 µM; in test [5], 2.34 µM.

`O=C(C1CC1)N1CC[C@@H](CN2C(=O)C3(CC3)N=C2c2ccc(-c3ccc4ncccc4c3)cc2)C1` [compound 455, 6-{[(3R)-1-(Cyclopropylcarbonyl)pyrrolidin-3-yl]methyl}-5-(4-quinolin-6-ylphenyl)-4,6-diazaspiro[2.4]hept-4-en-7-one]: the IC50 with A2780 ovarian cells [1] is approximately 0.891 µM; in test [3] it was approximately 0.692 µM; in the test with A2780 ovarian cells [4], more than 10 µM; in test [5], 2.14 µM.

Consider `Nc1nccc2cc(-c3ccc(C4=NC5(CC5)C(=O)N4C[C@@H]4CCN(C(=O)C5CC5)C4)cc3)ccc12` [compound 469, 5-[4-(1-Aminoisoquinolin-6-yl)phenyl]-6-{[(3R)-1-(cyclopropylcarbonyl)pyrrolidin-3-yl]methyl}-4,6-diazaspiro[2.4]hept-4-en-7-one], for which the IC50 in the test on A2780 ovarian cells [1] was 0.0741 µM; in test [3], 0.0589 µM; with A2780 ovarian cells [4], more than 10 µM; in test [5], 0.288 µM. Besides, the inhibition at 10 µM in test [2] came out at 97%.

Regarding `O=C(C1CC1)N1CC[C@@H](CN2C(=O)C3(CC3)N=C2c2ccc(-c3cnc4ccccc4c3)cc2)C1` [compound 474, 6-{[(3R)-1-(Cyclopropylcarbonyl)pyrrolidin-3-yl]methyl}-5-(4-quinolin-3-ylphenyl)-4,6-diazaspiro[2.4]hept-4-en-7-one], the IC50 in the test on A2780 ovarian cells [1] is 0.2 µM; in test [3], 0.708 µM; in the test on A2780 ovarian cells [4], more than 10 µM; in test [5] it was 1 µM.

With `Cc1cc(-c2ccc3c(cnn3C)c2)ccc1C1=NC2(CC2)C(=O)N1CC1CN(C(=O)C2CCC2)C1` [compound 489], the IC50 in the test with A2780 ovarian cells [1] was 0.148 µM; in test [3], approximately 0.251 µM; in the test on A2780 ovarian cells [4] it was more than 10 µM; in test [5], 0.708 µM. The inhibition at 10 µM in test [2] amounted to 97%.

In the case of `O=C(C1CC1)N1CC[C@@H](CN2C(=O)C3(CC3)N=C2c2ccc(-c3n[nH]c4ccccc34)cc2)C1` [compound 528, 6-{[(3R)-1-(Cyclopropylcarbonyl)pyrrolidin-3-yl]methyl}-5-[4-(1H-indazol-3-yl)phenyl]-4,6-diazaspiro[2.4]hept-4-en-7-one], the IC50 with A2780 ovarian cells [1] is approximately 0.398 µM; in test [3], 0.501 µM; in the test with A2780 ovarian cells [4], more than 10 µM; in test [5], 2.34 µM.
